Blank lines part the entries; values can stand above or below the molecule they belong to.
Molecular target: intrinsic factor (IF) (Homo sapiens, UniProt P27352)
Assay: Relative intrinsic factor (IF) affinity of eVB12 analogues and complexes
Format: binding
From the text: IF Affinity is expressed as a percentage of the affinity of the eVB12 derivative relative to native, unmodified VB12.

[1] = percentage of the affinity of the eVB12 derivative relative to native, unmodified VB12

intrinsic factor (IF), sequence (P27352 19-417, species assumed): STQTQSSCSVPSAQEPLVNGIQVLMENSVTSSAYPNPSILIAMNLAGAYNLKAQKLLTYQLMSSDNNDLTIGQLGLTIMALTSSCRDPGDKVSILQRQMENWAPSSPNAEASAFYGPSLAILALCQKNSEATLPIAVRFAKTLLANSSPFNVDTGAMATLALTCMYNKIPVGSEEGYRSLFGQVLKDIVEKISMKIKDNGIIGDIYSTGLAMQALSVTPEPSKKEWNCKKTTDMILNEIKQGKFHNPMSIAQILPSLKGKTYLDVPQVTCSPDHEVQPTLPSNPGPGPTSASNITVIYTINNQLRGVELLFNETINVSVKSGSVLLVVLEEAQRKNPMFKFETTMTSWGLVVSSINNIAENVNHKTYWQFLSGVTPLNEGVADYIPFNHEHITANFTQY

IF Affinity [1]: 100%
Molecule: hydrazidyl-eVB12

IF Affinity [1]: 74%
Molecule: 12-aminododecylamido-eVB12

IF Affinity [1]: 44%
Molecule: adipyldihydrazidyl-eVB12

IF Affinity [1]: 82%
Molecule: 12-aminododecyl-suberyl-hexylamido-eVB12

IF Affinity [1]: 48%
Molecule: 2-aminoethylamido-eVB12

IF Affinity [1]: 11%
Molecule: EPO-acyl[adipyldlhydrazidyl]-eVB12

IF Affinity [1]: 91%
Molecule: 6-aminohexylamido-eVB12

IF Affinity [1]: 6%
Molecule: dithlopropionamido[2-aminoethylamido]-eVB12

IF Affinity [1]: 7%
Molecule: dithiopropionamido[6-aminohexylamido]-eVB12

IF Affinity [1]: 11%
Molecule: dithioproplonamido[6-aminohexylamido]-eVB12

IF Affinity [1]: 6%
Molecule: EPO-acylhydrazidyl-eVB12

IF Affinity [1]: 35%
Molecule: eVB12 carboxylate

IF Affinity (% of native eVB12): 2-3%
IF Affinity [1]: 3%
B1: GCSF-dithioproplonamido[12-aminododecylamido]-eVB12 (conjugate, UniProt P09919 31-207, looked up)
Granulocyte …: TPLGPASSLPQSFLLKCLEQVRKIQGDGAALQEKLVSECATYKLCHPEELVLLGHSLGIPWAPLSSCPSQALQLAGCLSQLHSGLFLYQGLLQALEGISPELGPTLDTLQLDVADFATTIWQQMEELGMAPALQPTQGAMPAFASAFQRRAGGVLVASHLQSFLEVSYRVLRHLAQP
modifications: disulphide-linked aminododecyl vitamin B12 conjugate
notes: GCSF linked by disulphide at Cys-17 to DTP-aminododecyl-eVB12 (section 1.7)

IF Affinity [1]: 7%
B2: GCSF-acyl[adipyldihydrazidyl]-eVB12 (conjugate, UniProt P09919 31-207, looked up)
Granulocyte …: B1 Granulocyte …
modifications: adipyl-dihydrazide vitamin B12 conjugate
notes: EDAC-mediated conjugate of adipylhydrazido-eVB12 with GCSF (section 1.12)

IF Affinity [1]: 28%
B3: GCSF-diothloproplonamido12-aminododecyl-suberyl-hexylamido-eVB12 (conjugate, UniProt P09919 31-207, looked up)
Granulocyte …: B1 Granulocyte …
modifications: disulphide-linked dodecylsuberylhexyl vitamin B12 conjugate
notes: GCSF linked by disulphide to DTP-dodecylsuberylhexyl-eVB12 (section 1.9)

IF Affinity [1]: 10%
B4: GCSF-acylhydrazidyl-eVB12 (conjugate, UniProt P09919 31-207, looked up)
Granulocyte …: B1 Granulocyte …
modifications: hydrazide vitamin B12 conjugate
notes: EDAC-mediated conjugate of hydrazido-eVB12 with carboxyl groups of GCSF (section 1.11)

— patent US5548064A, “Vitamin B12 conjugates with EPO, analogues thereof and pharmaceutical compositions” (Biotech Australia Pty Limited, priority 1993, dated 1996)
